According to paper PMC12017303 (Science Advances, 2025):
≈ marks a conversion by molar mass, not a printed value.

Experiments:
SARS-CoV-1 M^Pro = SARS-CoV-1 M^Pro (Severe acute respiratory syndrome coronavirus, UniProt P0C6X7); assay: biochemical
SARS-CoV-2 M^Pro = SARS-CoV-2 M^Pro (Severe acute respiratory syndrome coronavirus 2, UniProt P0DTD1); format: biochemical
[1] = biological target: SARS-CoV-2 M^Pro (Cys^145) (Severe acute respiratory syndrome coronavirus 2, UniProt P0DTD1); format: binding
[2] = tested on: SARS-CoV-2 WA.1 replicon in Vero ACE2 TMPRSS2; assay: microbe, parasite or virus in culture; format: cell-based; conditions: Severe acute respiratory syndrome coronavirus 2, Vero, read-out: Replicon replication in Vero ACE2 TMPRSS2 EC50: WA.1
[3] = tested on: SARS-CoV-2 BA.2.86.1 replicon in Vero ACE2 TMPRSS2; assay: microbe, parasite or virus in culture; format: cell-based; conditions: Severe acute respiratory syndrome coronavirus 2, Vero, read-out: Replicon replication in Vero ACE2 TMPRSS2 EC50: BA.2.86.1
[4] = tested on: SARS-CoV-2 WA.1 (icSARS-CoV-2-mNG) in A549-ACE2^h; assay: microbe, parasite or virus in culture; format: cell-based; conditions: for EC50: Severe acute respiratory syndrome coronavirus 2, read-out: Viral replication in A549-ACE2^h EC50: WA.1
[5] = tested on: SARS-CoV-2 XBB.1.5 in A549-ACE2^h; assay: microbe, parasite or virus in culture; format: cell-based; conditions: Severe acute respiratory syndrome coronavirus 2, read-out: Viral replication in A549-ACE2^h EC50: XBB.1.5
[6] = tested on: SARS-CoV-2 XBB.1.16 in A549-ACE2^h; assay: microbe, parasite or virus in culture; format: cell-based; conditions: Severe acute respiratory syndrome coronavirus 2, read-out: Viral replication in A549-ACE2^h EC50: XBB.1.16
[7] = tested on: SARS-CoV-2 EG.5.1 in A549-ACE2^h; assay: microbe, parasite or virus in culture; format: cell-based; conditions: Severe acute respiratory syndrome coronavirus 2, read-out: Viral replication in A549-ACE2^h EC50: EG.5.1
HCoV Alpha 229E = assay: organism not typed; format: cell-based, HCoV 229E; conditions: Huh-7
HCoV Beta OC43 = assay: microbe, parasite or virus in culture; format: cell-based; conditions: Betacoronavirus 1, OC43
MERS-CoV EMC = assay: microbe, parasite or virus in culture; format: cell-based; conditions: Middle East respiratory syndrome-related coronavirus, Vero C1008
SARS-CoV Urbani = assay: microbe, parasite or virus in culture; format: cell-based; conditions: Severe acute respiratory syndrome coronavirus, Vero C1008
[8] = tested on: SARS-CoV-2 BA.2 (omicron); assay: microbe, parasite or virus in culture; format: cell-based; conditions: Severe acute respiratory syndrome coronavirus 2, Vero C1008
[9] = tested on: SARS-CoV-2 mNeon WA1 in A549-ACE2^h; format: cell-based
[10] = tested on: SARS-CoV-2 mNeon XBB.1.16 in A549-ACE2^h; format: cell-based
HAPLN1 = HAPLN1 (Homo sapiens, UniProt P10915); format: binding
[11] = tested on: human cytochrome P450 (CYP) isoforms
CYP2C8 = CYP2C8 (Homo sapiens, UniProt P10632); conditions: human, pH 7.4
[12] = tested on: panel of 40 receptors, ion channels (including the hERG channel), and serine and cysteine proteases
[13] = male, CD-1, mouse, in vivo; for AUClast / Plasma T½: po, 50 mg/kg
in vivo [14] = conditions: male, CD-1, mouse; for AUC(0-t): AUClast; for Vd: Vss
in vivo [15] = conditions: mouse
in vitro [16] = conditions: African green monkey
in vitro [17] = conditions: human
in vitro [18] = conditions: PAMPA, pH 7.4
physchem = conditions: pH 7.4, aqueous buffer, kinetic from dmso stock
in vitro [19] = conditions: human, microsomes, pH 7.4
in vitro [20] = conditions: mouse, microsomes, pH 7.4
in vitro [21] = conditions: plasma
P-gp (MDR1) = assay: in vitro; conditions: dog; for Papp B→A: MDCK-MDR1; for Papp A→B: MDCK-MDR1, MDCK AB
cathepsin L2 = cathepsin L2 (Homo sapiens, UniProt O60911)
[22] = format: physicochemical; conditions: 10 μM
[23] = human, pH 7.4
[24] = mouse, pH 7.4
[25] = rat, in vivo; cited from earlier work
[26] = pH 7.4, plasma protein binding (PPB)

cathepsin L2, sequence (O60911 114-334): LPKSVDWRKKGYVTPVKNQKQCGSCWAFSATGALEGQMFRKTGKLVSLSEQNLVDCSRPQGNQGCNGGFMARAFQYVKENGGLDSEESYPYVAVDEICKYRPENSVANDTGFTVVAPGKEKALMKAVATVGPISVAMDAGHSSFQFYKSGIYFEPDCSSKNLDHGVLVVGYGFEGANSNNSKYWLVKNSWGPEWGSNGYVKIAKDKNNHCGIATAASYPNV
CYP2C8, sequence (P10632 whole entry): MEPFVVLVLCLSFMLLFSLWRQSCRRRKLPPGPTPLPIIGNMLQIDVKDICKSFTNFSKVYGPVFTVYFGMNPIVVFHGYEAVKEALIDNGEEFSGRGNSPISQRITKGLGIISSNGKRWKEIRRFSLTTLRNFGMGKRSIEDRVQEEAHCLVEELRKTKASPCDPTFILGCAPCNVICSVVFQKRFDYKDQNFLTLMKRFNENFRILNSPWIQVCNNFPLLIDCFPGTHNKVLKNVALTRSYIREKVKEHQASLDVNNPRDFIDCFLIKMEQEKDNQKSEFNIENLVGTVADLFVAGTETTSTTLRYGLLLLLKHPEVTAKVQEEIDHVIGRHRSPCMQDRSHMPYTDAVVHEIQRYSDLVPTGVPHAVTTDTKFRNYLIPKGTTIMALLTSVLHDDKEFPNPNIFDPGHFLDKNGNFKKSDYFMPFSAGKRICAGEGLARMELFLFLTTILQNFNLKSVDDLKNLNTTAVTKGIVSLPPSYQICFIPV
HAPLN1, sequence (P10915 16-354): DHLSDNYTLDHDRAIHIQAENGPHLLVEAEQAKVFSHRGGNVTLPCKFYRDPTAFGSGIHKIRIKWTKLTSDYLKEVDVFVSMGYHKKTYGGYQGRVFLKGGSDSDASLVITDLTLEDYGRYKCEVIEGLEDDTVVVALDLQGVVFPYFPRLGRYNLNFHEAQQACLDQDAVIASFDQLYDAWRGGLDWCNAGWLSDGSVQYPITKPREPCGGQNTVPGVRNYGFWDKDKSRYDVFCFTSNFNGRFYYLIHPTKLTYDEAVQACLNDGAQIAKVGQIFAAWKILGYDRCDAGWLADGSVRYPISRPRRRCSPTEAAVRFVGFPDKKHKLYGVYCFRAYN

C#CCn1c(C)c(-n2nnc3ccccc32)c(=O)n(-c2cncc3ccccc23)c1=O [AVI-4516]
IC50 (SARS-CoV-1 M^Pro): 55 nM
M^Pro activity after dialysis (SARS-CoV-2 M^Pro): activity was not regained
covalent adduct by whole protein MS [1]: single modification consistent with the mass of AVI-4516
EC50 [2]: 160 nM
EC50 [3]: 130 nM
EC50 [4]: 38 nM
EC90 ([4]; Severe acute respiratory syndrome coronavirus 2, read-out: cellular 90% effective concentration (EC90)): 97 nM
EC50 [5]: 30 nM
EC50 [6]: 34 nM
EC50 [7]: 37 nM
EC50 (HCoV Alpha 229E): 2900 nM
EC90 (HCoV Alpha 229E): 3500 nM
EC50 (HCoV Beta OC43): 590 nM
EC90 (HCoV Beta OC43): 520 nM
EC50 (MERS-CoV EMC): < 32 nM
EC50 (SARS-CoV Urbani): 570 nM
EC90 (SARS-CoV Urbani): 1000 nM
EC50 [8]: 180 nM
EC90 [8]: 390 nM
synergy with molnupiravir (ZIP analysis) [9]: a minor effect was observed in the direction of positive synergy
synergy with molnupiravir (ZIP analysis) [10]: synergy was observed at several concentrations
increase in Tm of HAPLN1 (HAPLN1): 5.77 °C
inhibition across the CYP panel ([11]; human, pH 7.4): ≤ 25%
CYP2C8 inhibition (CYP2C8): ~ 45%
off-target activity across panel, result in words [12]: no substantial inhibition or interference with any of the off-targets
Mouse F [13]: 57
free concentration in plasma [13]: 2615 nM
AUClast [13]: 49900 ng·h/mL
Plasma T½ [13]: 4.7 h
bioavailability (in vivo [14]; F): 174%
MRT inf (in vivo [14]; iv, 10 mg/kg): 0.798 h
clearance (in vivo [14]; iv, 10 mg/kg): 29 mL/min/kg
half-life (in vivo [14]; iv, 10 mg/kg): 0.866 h
AUC(0-inf) (in vivo [14]; iv, 10 mg/kg, AUCINF): 5740 ng·h/mL
AUC(0-t) (in vivo [14]; iv, 10 mg/kg): 5730 ng·h/mL
Vd (in vivo [14]; iv, 10 mg/kg): 1.39 L/kg
bioavailability (in vivo [14]; oral bioavailability (%F)): > 100%
half-life (in vivo [14]; po, 50 mg/kg): 4.7 h
AUC(0-inf) (in vivo [14]; po, 50 mg/kg, AUCINF): 69500 ng·h/mL
AUC(0-inf) (in vivo [14]; po, 50 mg/kg, AUCinf): 69500 ng·h/mL
AUC(0-t) (in vivo [14]; po, 50 mg/kg): 49900 ng·h/mL
Cmax (in vivo [14]; po, 50 mg/kg, CMax): 10100 ng/mL
Cmax (in vivo [14]; po, 50 mg/kg, Cmax): 10100 ng/mL
Tmax (in vivo [14]; po, 50 mg/kg, TMax): 1 h
Tmax (in vivo [14]; po, 50 mg/kg, Tmax): 1 h
Kp (in vivo [15]): ~0.05
CC50 (in vitro [16]): > 100000 nM
CC50 (in vitro [17]): > 100000 nM
viability at 100 µM (in vitro [17]): 90.4%
Papp (in vitro [18]): 22.4 ×10⁻⁶ cm/s
solubility (physchem): 347 µM (≈ 142 µg/mL)
half-life (in vitro [19]): > 2 h
half-life (in vitro [20]): > 2 h
fraction unbound (in vitro [21]; pH 7.4, PPB): 0.37
fraction unbound (in vitro [21]; [26]): 0.39
Papp B→A (P-gp (MDR1)): 45.2 ×10⁻⁶ cm/s
Papp A→B (P-gp (MDR1)): 13.3 ×10⁻⁶ cm/s

O=c1[nH]c(-c2ccc(Cl)c(Cl)c2)c(-n2nnc3cc(F)c(F)cc32)c(=O)n1-c1cncc2ccccc12 [AVI-4673]
EC50 [2]: 940 nM
EC50 [3]: 280 nM
EC50 [4]: 190 nM
EC50 [5]: 150 nM
EC50 [6]: 360 nM
EC50 [7]: 230 nM
cathepsin L2 inhibition, result in words (cathepsin L2): low-micromolar inhibitor
Mouse F [13]: 76
AUClast [13]: 11500 ng·h/mL
Plasma T½ [13]: 2.12 h
bioavailability (in vivo [14]; F): 71.6%
MRT inf (in vivo [14]; iv, 10 mg/kg): 1.53 h
clearance (in vivo [14]; iv, 10 mg/kg): 51.7 mL/min/kg
half-life (in vivo [14]; iv, 10 mg/kg): 2.19 h
AUC(0-inf) (in vivo [14]; iv, 10 mg/kg, AUCINF): 3220 ng·h/mL
AUC(0-t) (in vivo [14]; iv, 10 mg/kg): 3100 ng·h/mL
Vd (in vivo [14]; iv, 10 mg/kg): 4.75 L/kg
half-life (in vivo [14]; po, 50 mg/kg): 2.12 h
AUC(0-inf) (in vivo [14]; po, 50 mg/kg, AUCINF): 11500 ng·h/mL
AUC(0-inf) (in vivo [14]; po, 50 mg/kg, AUCinf): 11500 ng·h/mL
AUC(0-t) (in vivo [14]; po, 50 mg/kg): 11500 ng·h/mL
Cmax (in vivo [14]; po, 50 mg/kg, CMax): 2420 ng/mL
Cmax (in vivo [14]; po, 50 mg/kg, Cmax): 2420 ng/mL
Tmax (in vivo [14]; po, 50 mg/kg, TMax): 4 h
Tmax (in vivo [14]; po, 50 mg/kg, Tmax): 2 h
CC50 (in vitro [17]): > 100000 nM
viability at 100 µM (in vitro [17]): 94.4%
Papp (in vitro [18]): 4.99 ×10⁻⁶ cm/s
solubility (physchem): 475 µM (≈ 255 µg/mL)
half-life (in vitro [19]): > 2 h
half-life (in vitro [20]): > 2 h
fraction unbound (in vitro [21]; pH 7.4, PPB): 0.005
Papp B→A (P-gp (MDR1)): 18.4 ×10⁻⁶ cm/s
Papp A→B (P-gp (MDR1)): 2.1 ×10⁻⁶ cm/s

C#CCn1c(-c2ccc(Cl)c(Cl)c2)c(-n2nnc3cc(F)c(F)cc32)c(=O)n(-c2cncc3ccccc23)c1=O [AVI-4694]
IC50 (SARS-CoV-1 M^Pro): 66 nM
M^Pro activity after dialysis (SARS-CoV-2 M^Pro): activity was not regained
covalent adduct by whole protein MS [1]: mass shifts consistent with modification at a single site
particle formation by dynamic light scattering (DLS) [22]: formed particles
EC50 [2]: 13 nM
EC50 [3]: 12 nM
EC50 [4]: 71 nM
EC50 [5]: 0.3 nM
EC50 [6]: 0.32 nM
EC50 [7]: 0.22 nM
EC50 (HCoV Alpha 229E): > 1600 nM
EC90 (HCoV Alpha 229E): > 1600 nM
EC50 (HCoV Beta OC43): 55 nM
EC90 (HCoV Beta OC43): 61 nM
EC50 (MERS-CoV EMC): 45 nM
EC50 (SARS-CoV Urbani): 52 nM
EC90 (SARS-CoV Urbani): 91 nM
EC50 [8]: 50 nM
EC90 [8]: 45 nM
HLM T1/2 [23]: > 2 h
MLM T1/2 [24]: > 2 h
inhibition of several CYP isoforms ([11]; 10 μM): > 50%
off-target activity across panel, result in words [12]: low-micromolar inhibition of nine enzymes/receptors in the panel
Mouse F [13]: 64
AUClast [13]: 56500 ng·h/mL
Plasma T½ [13]: 1.87 h
bioavailability (in vivo [14]; F): 63.5%
MRT inf (in vivo [14]; iv, 10 mg/kg): 2.6 h
clearance (in vivo [14]; iv, 10 mg/kg): 9.37 mL/min/kg
half-life (in vivo [14]; iv, 10 mg/kg): 1.72 h
AUC(0-inf) (in vivo [14]; iv, 10 mg/kg, AUCINF): 17800 ng·h/mL
AUC(0-t) (in vivo [14]; iv, 10 mg/kg): 17300 ng·h/mL
Vd (in vivo [14]; iv, 10 mg/kg): 1.46 L/kg
half-life (in vivo [14]; po, 50 mg/kg): 1.87 h
AUC(0-inf) (in vivo [14]; po, 50 mg/kg, AUCINF): 56500 ng·h/mL
AUC(0-inf) (in vivo [14]; po, 50 mg/kg, AUCinf): 56500 ng·h/mL
AUC(0-t) (in vivo [14]; po, 50 mg/kg): 56500 ng·h/mL
Cmax (in vivo [14]; po, 50 mg/kg, CMax): 5770 ng/mL
Cmax (in vivo [14]; po, 50 mg/kg, Cmax): 5770 ng/mL
Tmax (in vivo [14]; po, 50 mg/kg, TMax): 4 h
Tmax (in vivo [14]; po, 50 mg/kg, Tmax): 4 h
solubility (physchem): 2.4 µM (≈ 1.38 µg/mL)
half-life (in vitro [20]): 1.6 h
fraction unbound (in vitro [21]; pH 7.4, PPB): 0.003
fraction unbound (in vitro [21]; [26]): < 0.01
Papp B→A (P-gp (MDR1)): 13.8 ×10⁻⁶ cm/s
Papp A→B (P-gp (MDR1)): 8.2 ×10⁻⁶ cm/s

CC(C)(C)[C@H](NC(=O)C(F)(F)F)C(=O)N1C[C@H]2[C@@H]([C@H]1C(=O)N[C@H](C#N)C[C@@H]1CCNC1=O)C2(C)C [nirmatrelvir, reference compound]
EC50 [2]: 620 nM
EC50 [3]: 810 nM
EC50 [4]: 31 nM
EC50 [5]: 21 nM
EC50 [6]: 41 nM
EC50 [7]: 67 nM
brain concentrations relative to EC90 [25]: only three times the respective EC90 value
